# Assay results: publication PMC6835510, “Magnificamide, a β-Defensin-Like Peptide from the Mucus of the Sea Anemone Heteractis magnifica, Is a Strong Inhibitor of Mammalian α-Amylases” (Marine Drugs, 2019)
# Bridge positions count the residues as written; N and C are the ends. Ends that are not written are not given here.
# What was measured:
# hKv1.3 = assay: Two-electrode voltage-clamp; format: cell-based, mammalian; details: 10 µM; Xenopus laevis oocytes; 18–22 °C
# Text: (§1) For the expression of Nav channels (mammalian rNav1.2, rNav1.4, hNav1.5, mNav1.6 and hNav1.8 channels; the insect channel BgNav1 from Blattella germanica; and the auxiliary subunits rβ1, hβ1, and TipE) and Kv channels (mammalian rKv1.1, rKv1.2, hKv1.3, rKv1.4, rKv1.5, rKv1.6, rKv2.1, hKv3.1, rKv4.2, hKv10.1, and hERG; and Drosophila Shaker’s IR) in Xenopus laevis oocytes; the linearized plasmids were transcribed using the T7 or SP6 mMESSAGE-mMACHINE transcription kit (Ambion, Carlsbad, CA, USA). The harvesting of stage V–VI oocytes from anesthetized female Xenopus laevis frog was previously described. Oocytes were injected with 50 nL of cRNA at a concentration of 1 ng/nL using a microinjector (Drummond Scientific, Broomall, PA, USA). The oocytes were incubated in a solution containing 96-mM NaCl, 2-mM KCl, 1.8-mM CaCl2, 2-mM MgCl2, and 5-mM HEPES (pH 7.4), supplemented with 50 mg/L gentamycin sulfate.
# (§2) Two-electrode voltage-clamp recordings were performed at room temperature (18–22 °C) using a Geneclamp 500 amplifier (Molecular Devices, Downingtown, PA, USA) controlled by a pClamp data acquisition system (Axon Instruments, Union City, CA, USA). Whole cell currents from oocytes were recorded 1–4 days after injection. The bath solution’s composition was 96-mM NaCl, 2-mM KCl, 1.8-mM CaCl2, 2-mM MgCl2, and 5-mM HEPES (pH 7.4). Toxins were applied directly to the bath. Resistances of both electrodes were kept between 0.8 and 1.5 MΩ. The elicited currents were sampled at 20 kHz (Nav) or 2 kHz (Kv), filtered at 2 kHz (Nav) or 0.5 kHz (Kv) using a four-pole low-pass Bessel filter. Leak subtraction was performed using a -P/4 protocol. […] For the electrophysiological analysis, a number of protocols were applied from a holding potential of −90 mV with a start-to-start interval of 0.2 Hz. Kv1.1–Kv1.6 and Shaker currents were evoked by 250-ms depolarizations to 0 mV followed by a 250 ms pulse to −50 mV from a holding potential of −90 mV. Current traces of hERG channels were elicited by applying a +40 mV prepulse for 2 s followed by −120 mV for 2 s. Kv2.1, Kv3.1, and Kv4.2 currents were elicited by 250 ms pulses to +20 mV from a holding potential of −90 mV. Kv10.1 currents were evoked by 2-s depolarizing pulses to 0 mV from a holding potential of −90 mV. Sodium current traces were evoked by 100-ms depolarization to the voltage corresponding to maximal sodium current in control conditions. All data were analyzed using pClamp Clampfit 10.0 (Molecular Devices, Downingtown, PA, USA) and Origin 7.5 software (Originlab, Northampton, MA, USA).
# hKv10.1 = assay: Two-electrode voltage-clamp; format: cell-based, mammalian; details: 10 µM; Xenopus laevis oocytes; 18–22 °C
# Text: as §1, §2
# rNav1.2 = assay: Two-electrode voltage-clamp; format: cell-based, mammalian; details: 10 µM; Xenopus laevis oocytes; 18–22 °C
# Text: as §1, §2
# hNav1.8 = assay: Two-electrode voltage-clamp; format: cell-based, mammalian; details: 10 µM; Xenopus laevis oocytes; 18–22 °C
# Text: as §1, §2
# rKv1.6 = assay: Two-electrode voltage-clamp; format: cell-based, mammalian; details: 10 µM; Xenopus laevis oocytes; 18–22 °C
# Text: as §1, §2
# rKv1.5 = assay: Two-electrode voltage-clamp; format: cell-based, mammalian; details: 10 µM; Xenopus laevis oocytes; 18–22 °C
# Text: as §1, §2
# mNav1.6 = assay: Two-electrode voltage-clamp; format: cell-based, mammalian; details: 10 µM; Xenopus laevis oocytes; 18–22 °C
# Text: as §1, §2
# rKv1.4 = assay: Two-electrode voltage-clamp; format: cell-based, mammalian; details: 10 µM; Xenopus laevis oocytes; 18–22 °C
# Text: as §1, §2
# hERG = assay: Two-electrode voltage-clamp; format: cell-based, mammalian; details: 10 µM; Xenopus laevis oocytes; 18–22 °C
# Text: as §1, §2
# rKv1.2 = assay: Two-electrode voltage-clamp; format: cell-based, mammalian; details: 10 µM; Xenopus laevis oocytes; 18–22 °C
# Text: as §1, §2
# rKv2.1 = assay: Two-electrode voltage-clamp; format: cell-based, mammalian; details: 10 µM; Xenopus laevis oocytes; 18–22 °C
# Text: as §1, §2
# rNav1.4 = assay: Two-electrode voltage-clamp; format: cell-based, mammalian; details: 10 µM; Xenopus laevis oocytes; 18–22 °C
# Text: as §1, §2
# rKv4.2 = assay: Two-electrode voltage-clamp; format: cell-based, mammalian; details: 10 µM; Xenopus laevis oocytes; 18–22 °C
# Text: as §1, §2
# Shaker IR = assay: Two-electrode voltage-clamp; format: cell-based, Drosophila; details: 10 µM; insect channel; Xenopus laevis oocytes; 18–22 °C
# Text: as §1
# Two-electrode voltage-clamp recordings were performed at room temperature (18–22 °C) using a Geneclamp 500 amplifier (Molecular Devices, Downingtown, PA, USA) controlled by a pClamp data acquisition system (Axon Instruments, Union City, CA, USA). Whole cell currents from oocytes were recorded 1–4 days after injection. […] All data were analyzed using pClamp Clampfit 10.0 (Molecular Devices, Downingtown, PA, USA) and Origin 7.5 software (Originlab, Northampton, MA, USA).
# [1] = test system: 18 subtypes of voltage-gated potassium and voltage-gated sodium channels; assay: Electrophysiological screening, overall; format: cell-based; details: 10 µM, Xenopus laevis oocytes
# Text: as §1
# as §2, with “Current traces of hERG channels were elicited by applying a +40 mV prepulse for 2 s followed by −120 mV for 2 s. Kv2.1, Kv3.1, and Kv4.2 currents were elicited by 250 ms pulses to +20 mV from a holding potential of −90 mV. Kv10.1 currents were evoked by 2-s depolarizing pulses to 0 mV from a holding potential of −90 mV. Sodium current traces were evoked by 100-ms depolarization to the voltage corresponding to maximal sodium current in control conditions.” left out
# [2] = test system: Pseudomonas aeruginosa ATCC 27853; assay: Antimicrobial activity, agar dilution method; format: cell-based; details: 1, 5, 10, 20 µM; 100 µL in 6 mm agar wells; 18 h, 37 °C; clear zone; three independent assays
# Experimental: (§3) The antimicrobial activity of r-magnificamide was tested against Gram-positive (Staphylococcus aureus ATCC 21027 and Bacillus subtilis ATCC6633), Gram-negative bacteria (Escherichia coli VKPM B-7935 and Pseudomonas aeruginosa ATCC 27853), and the fungus Candida albicans KMM 455 by the agar dilution method. Microbial strains were taken from the American Type Culture Collection (ATCC), Russian National Collection of Industrial Microorganisms (VKPM), and Collection of Marine Microorganisms (KMM) (Pacific Institute of Bioorganic Chemistry FEB RAS). To obtain a microbial lawn, 0.1 mL of a cell suspension (0.5 × 10^8 cells/mL) was uniformly distributed on agar surface in Petri dishes (15 g/L tryptic soy broth, 2 g/L bacto yeast extract, 1 g/L glucose, and 20 g/L agar for bacteria; for fungi 10 g/L of glucose was added). Wells with a diameter of 6 mm were punched into the agar and filled with 100 µL of the peptide solution at concentrations 1, 5, 10, and 20 µM. The plates were then incubated for 18 h at 37 °C for bacteria, and at 30 °C for the fungus. Minimum inhibitory concentration was determined by measuring the clear zone of inhibition around each well. All assays were performed independently three times.
# Candida albicans KMM 455 = assay: Antimicrobial activity, agar dilution method; format: cell-based; details: 1, 5, 10, 20 µM; 100 µL in 6 mm agar wells; 18 h, 30 °C; clear zone; three independent assays
# Experimental: as §3
# [3] = test system: Escherichia coli VKPM B-7935; assay: Antimicrobial activity, agar dilution method; format: cell-based; details: 1, 5, 10, 20 µM; 100 µL in 6 mm agar wells; 18 h, 37 °C; clear zone; three independent assays
# Experimental: as §3
# [4] = test system: Staphylococcus aureus ATCC 21027; assay: Antimicrobial activity, agar dilution method; format: cell-based; details: 1, 5, 10, 20 µM; 100 µL in 6 mm agar wells; 18 h, 37 °C; clear zone; three independent assays
# Experimental: as §3
# [5] = test system: Bacillus subtilis ATCC6633; assay: Antimicrobial activity, agar dilution method; format: cell-based; details: 1, 5, 10, 20 µM; 100 µL in 6 mm agar wells; 18 h, 37 °C; clear zone; three independent assays
# Experimental: as §3
sequence,measurement,setting,value
"SEGTSCYIYHGVYGICKAKCAEDMKAMAGMGVCEGDLCCYKTPW (disulfide 6-38, 16-33, 20-39) [r-magnificamide]","Channel modulating activity, Kv1.3",hKv1.3,Not active
same,"Channel modulating activity, Kv10.1",hKv10.1,Not active
same,"Channel modulating activity, Nav1.2",rNav1.2,Not active
same,"Channel modulating activity, Nav1.8",hNav1.8,Not active
same,"Channel modulating activity, Kv1.6",rKv1.6,Not active
same,"Channel modulating activity, Kv1.5",rKv1.5,Not active
same,"Channel modulating activity, Nav1.6",mNav1.6,Not active
same,"Channel modulating activity, Kv1.4",rKv1.4,Not active
same,"Channel modulating activity, hERG",hERG,Not active
same,"Channel modulating activity, Kv1.2",rKv1.2,Not active
same,"Channel modulating activity, Kv2.1",rKv2.1,Not active
same,"Channel modulating activity, Nav1.4",rNav1.4,Not active
same,"Channel modulating activity, Kv4.2",rKv4.2,Not active
same,"Channel modulating activity, Shaker",Shaker IR,Not active
same,"Ion channel modulating activity, overall",[1]; listed as r-Magnificamide,did not reveal ion channel modulating activity
same,"Ion channel modulating activity, overall",[1]; listed as recombinant analog of magnificamide,does not show antimicrobial or channel modulating activities
same,"Antimicrobial activity, P. aeruginosa",[2],Not active
same,"Antimicrobial activity, C. albicans",Candida albicans KMM 455,Not active
same,"Antimicrobial activity, E. coli",[3],Not active
same,"Antimicrobial activity, S. aureus",[4],Not active
same,"Antimicrobial activity, B. subtilis",[5],Not active
